Data taken from patent publication US7557109B2, “Treatment for attention-deficit hyperactivity disorder” (priority 2001, dated 2009).

Key:
C3H mice = assay: Peak procedure (30 second reinforcement interval), C3H mice; format: in vivo
Protocol: The peak procedure is a behavioral model designed to assess an animal's ability to learn an appropriate time period in which to perform a task and a time period in which the animal will be rewarded if the task is performed. The model provides information concerning excitatory and inhibitory components of behavior, as subjects must respond to perform a task when appropriate and stop responding in an “empty trial” when time for reward has elapsed and the reward has not been delivered. The task is sensitive to conditions where there is a failure in inhibitory mechanisms, such as seems to be the case for ADHD (Pliszka et al., Biol. Psychiatry, 48:238-46, 2000).
In the peak procedure, mice are trained to work for food that is delivered at the same time in each trial, but withdrawn in some unreinforced trials. Typically, the response rate increases up to a maximum around the reinforcement time, and then decreases to a low toward the end of the trial. The shape of the response rate indicates whether the animal is sensitive to the time of reinforcement. To be able to perform well in this model, the animals need to be able to learn several tasks. First, the animal must make an association between a response (lever pressing, nose poking or key pecking) and the delivery of reward. Second, the animal must be able to perceive and remember time. Third, the animal must act on its remembered time by starting and then stopping or inhibiting the response. Fourth, the animal must be able to compare the elapsed time in the trials with its remembered time to reinforcement. […] Accuracy is measured by looking at the shape of the response function; therefore, if the response function is sharper and centered on the reinforcement time it supports a conclusion that attentional processes have been heightened.
Mice were food deprived to 85-90% of their free-feeding body weight by supplementing food earned during experimental sessions with a measured amount after the session had ended. […]

[1] = test system: coloboma (Cm) mutant mice; format: in vivo
Text: Heterozygote coloboma mice were originally purchased from The Jackson Laboratory (Bar Harbor, Me.) and were bred and maintained in our colony. In the current study, 20 mutant mice and 25 wild-type littermates, all aged 8 to 10 weeks, were used. Animals were divided into 4 groups: mutant/drug-treatment (n=11), mutant/vehicle-control (n=9), wild-type/drug-treatment (n=13), wild-type/vehicle-control (n=12). Age and gender were balanced among groups. All animals were housed as littermates (2-4 mice per cage) and were maintained on ad libitum food and water with a 12 hr light/dark cycle.
Open-field testing was performed under normal lighting conditions. Mice were brought into the experimental room and allowed at least 1 hr of acclimatization. Thirty minutes prior to testing, animals received an ip. injection of either d-amphetamine (4 mg/kg), eltoprazine (0.5 mg/kg) or saline. The mice were then placed in the activity monitor arenas (27×27×20 cm, Med Associates). Four animals of matching genotype and treatment were tested at one time. Each testing session lasted 40 minutes, after which animals were returned to their home cages. An automated infrared beam array system measured locomotor activity (total distance traveled) and number of center entries (zone crossings).

dopamine receptors = conditions: read-out: Ki, affinity for dopamine receptors; cited from earlier work
5-HT receptor subtypes = conditions: cited from earlier work
[2] = broad range of doses; cited from earlier work

c1cc2c(c(N3CCNCC3)c1)OCCO2 [eltoprazine, 1-(2,3-dihydro-1,4-benzodioxanyl-5-yl) piperazine]
relative response rate curve in peak trials (C3H mice; 0.1 and 0.9 mg/kg (FIG. 3)): cognitive enhancement was observed | relative response rate curve in peak trials (C3H mice; 1, 2 and 4 mg/kg (FIGS. 2A-C)): flatter than the saline curve | reduction of total ambulatory distance from that of saline-treated Cm mutants ([1]; 0.5 mg/kg i.p.): more than 50% | number of zone crossings ([1]; 0.5 mg/kg i.p. (FIG. 5B)): decreased the number of zone crossings in Cm mutants to within the range of saline-treated wild-type mice | exploratory preference (center vs periphery of arena) ([1]; 0.5 mg/kg i.p. (FIG. 6A, 6B)): no effect on exploratory preference | rearing behavior ([1]; 0.5 mg/kg i.p. vs saline (FIG. 6C, 6D)): same pattern of rearing behavior | total ambulatory distance ([1]; 0.5 mg/kg i.p., 40 min session, saline 17725±6636 cm (FIG. 5A)): 8641±1811 | sedative effect ([1]; 0.5 mg/kg i.p., open field): no sedative effect | Ki (dopamine receptors): > 1 µM | affinity for the 5-HT1A, 5-HT1B, and 5-HT2C receptors (5-HT receptor subtypes): roughly equipotent affinity | affinity for the 5-HT1D receptor (5-HT receptor subtypes; compared with serotonin): relatively low affinity | overall safety and tolerance [2]: good
